Our source for the TGI and GI50 values is PubChem BioAssay (NCI).

In general, TGI refers to the concentration giving total growth inhibition. Low values mean greater sensitivity of the cells, high ones lower sensitivity of the cells. By GI50 is commonly meant the concentration at which growth is held to half of that of the control.

Among the test systems are NCI-H460 lung; TK-10 renal; HOP-92 NSCLC; OVCAR-3 ovarian; U251 CNS; 786-0 renal; HCT-116 colon; SR leukemia; SK-OV-3 ovarian; T-47D breast.
Holding throughout (experiment): DTP human tumour cell line panel, 48 h

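Grown in 96-well plates, cells were treated for 48 hours with each compound at five concentrations. Insufficient inhibition: endpoint recorded as highest concentration tested. At the GI50, growth is halved. TGI: total growth inhibition.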

For `Cc1cc(Cl)ccc1NC(=O)C1C(=O)N(c2ccc(Cl)cc2C)C(=O)/C1=N\NC(N)=S` (centres undefined), the TGI is more than 100 µM in the test with NCI-H460 lung; more than 100 µM in the test on TK-10 renal; 46.6 µM in the test on HOP-92 NSCLC; more than 100 µM in the test with OVCAR-3 ovarian; 39.6 µM with U251 CNS; more than 100 µM in the test with 786-0 renal. Moreover, the TGI with HCT-116 colon was found to be 46.2 µM.
Regarding `Cc1cc(C)nc(NS(=O)(=O)c2ccc(Nc3c4ccccc4nc4c(C(=O)NCCN(C)C)cccc34)cc2)n1`, the TGI with NCI-H460 lung was found to be 10.9 µM; with TK-10 renal, 27.7 µM; with SR leukemia it was 43.7 µM; with U251 CNS, 18.1 µM; in the test on 786-0 renal, 25.2 µM; in the test with HCT-116 colon, 15.5 µM.
As to `O=C1OC(=O)C([Se]c2ccccc2)=C1[Se]c1ccccc1`, the TGI in the test with NCI-H460 lung, in the test on TK-10 renal, in the test on SR leukemia, in the test on HOP-92 NSCLC, in the test with OVCAR-3 ovarian and with U251 CNS was more than 100 µM throughout. The TGI in the test with 786-0 renal, with HCT-116 colon and with SK-OV-3 ovarian was more than 100 µM in each case.
On to `CCc1ccc2c(c1)N(CCO)C1=C(C(=O)OC1)C2c1cc(OC)c(OC)c(OC)c1` (centres undefined), for which the GI50 in the test with NCI-H460 lung was 0.178 µM; with TK-10 renal it was 0.248 µM; with SR leukemia, 0.187 µM; with HOP-92 NSCLC, 0.716 µM; in the test with OVCAR-3 ovarian, 0.112 µM; in the test on U251 CNS it was 0.182 µM. The results for the GI50 with 786-0 renal, in the test with HCT-116 colon and in the test with SK-OV-3 ovarian were 0.245 µM, 0.188 µM and 0.169 µM, respectively. Also, the TGI with NCI-H460 lung is 7.62 µM; in the test on TK-10 renal, more than 50 µM; with SR leukemia, more than 50 µM; with HOP-92 NSCLC it was more than 50 µM; in the test with OVCAR-3 ovarian it was 0.274 µM; in the test with U251 CNS, more than 50 µM. In addition, the TGI is more than 14.5 µM with 786-0 renal and 1.77 µM in the test on HCT-116 colon.
Take `O=C1C(=O)C2(CC1S(=O)(=O)c1ccccc1)c1ccccc1-c1ccccc12` (centres undefined): the TGI with NCI-H460 lung was 36.2 µM; in the test on TK-10 renal it was 68.9 µM; with SR leukemia, 50 µM; in the test on OVCAR-3 ovarian, more than 10 µM; with U251 CNS, 34.3 µM; in the test with 786-0 renal, 82.5 µM. The TGI in the test on HCT-116 colon is 31.9 µM; in the test with SK-OV-3 ovarian it was more than 100 µM.
Take `O=C(/C=C/c1ccccc1O)c1ccccc1Cl`: the TGI in the test on NCI-H460 lung was more than 100 µM; in the test with TK-10 renal, more than 100 µM; with SR leukemia, 76.5 µM; with HOP-92 NSCLC it was more than 100 µM; with OVCAR-3 ovarian, more than 100 µM; in the test with U251 CNS it was more than 100 µM. In addition, the TGI with 786-0 renal, in the test on HCT-116 colon and in the test on SK-OV-3 ovarian was more than 100 µM throughout.
With `COc1ccc(Br)c(C(=O)N2CCc3ccccc32)c1N`, the TGI in the test with NCI-H460 lung is more than 100 µM; in the test with TK-10 renal it was more than 100 µM; in the test on SR leukemia it was 79.1 µM; with HOP-92 NSCLC it was more than 100 µM; in the test on OVCAR-3 ovarian, 66.2 µM; with U251 CNS, more than 100 µM. The TGI was more than 100 µM with 786-0 renal, more than 100 µM with HCT-116 colon and 80.2 µM in the test on SK-OV-3 ovarian.
For `C1=CC2CCC1CN2CCC1CNc2ccccc21` (centres undefined), the TGI with TK-10 renal, in the test on SR leukemia, in the test with HOP-92 NSCLC, with OVCAR-3 ovarian, in the test on U251 CNS and in the test on 786-0 renal was more than 100 µM each time. Also, the TGI with HCT-116 colon and in the test with SK-OV-3 ovarian was more than 100 µM in each case.
Take `COc1cc(OC)c2c(=O)c3cccc([N+](=O)[O-])c3n(C)c2c1`: the TGI with TK-10 renal, in the test with U251 CNS, in the test on 786-0 renal and in the test with SK-OV-3 ovarian was more than 100 µM each time.
Regarding `COc1cccc(/C=N\NC(=O)C(C)SC(C)C(=O)N/N=C/c2cccc(OC)c2)c1` (centres undefined), the TGI was 23.2 µM with NCI-H460 lung; 36.6 µM with TK-10 renal; more than 100 µM in the test on SR leukemia; 38.8 µM with HOP-92 NSCLC; 39.3 µM with OVCAR-3 ovarian; 35.9 µM with U251 CNS. The figures for the TGI in the test with 786-0 renal, in the test with HCT-116 colon and in the test with SK-OV-3 ovarian were 31.6 µM, 34.7 µM and 32.4 µM, respectively.
As to `COc1ccc(C2=Nn3c(nnc3-n3nc(C)cc3C)SC2)cc1`, the concentration for 50% growth inhibition (GI50) in the test with NCI-H460 lung was 0.0518 µM; in the test on TK-10 renal, 0.227 µM; with SR leukemia, 0.0242 µM; in the test with HOP-92 NSCLC, 0.0245 µM; in the test on OVCAR-3 ovarian, 0.0346 µM; in the test on U251 CNS it was 0.0532 µM. For the same compound, the results for the GI50 in the test on 786-0 renal, in the test on HCT-116 colon and in the test with SK-OV-3 ovarian were 0.146 µM, 0.0554 µM and 0.0908 µM, respectively. The TGI with NCI-H460 lung was more than 100 µM; in the test on TK-10 renal it was more than 100 µM; in the test with SR leukemia, more than 100 µM; with HOP-92 NSCLC it was 0.836 µM; with OVCAR-3 ovarian it was 0.114 µM; in the test with U251 CNS it was more than 100 µM. The TGI in the test with 786-0 renal, in the test with HCT-116 colon and with SK-OV-3 ovarian was more than 100 µM in each case.
Turning to `CCN(c1ccccc1)[C@H]1C(=O)N(c2ccc([N+](=O)[O-])cc2)[C@H]1c1ccc(OC)cc1`, the TGI is more than 100 µM with NCI-H460 lung; more than 100 µM in the test on TK-10 renal; more than 100 µM with SR leukemia; 81.8 µM in the test with HOP-92 NSCLC; more than 100 µM in the test on OVCAR-3 ovarian; more than 100 µM in the test on U251 CNS. The TGI in the test with 786-0 renal, with HCT-116 colon and in the test on SK-OV-3 ovarian was more than 100 µM in each case.
For `Cn1cnnc1[S-].[Au+].c1ccc([PH+](c2ccccc2)c2ccccc2)cc1`, the GI50 was 1.72 µM in the test with TK-10 renal; 1.88 µM in the test on HOP-92 NSCLC; 1.79 µM in the test with OVCAR-3 ovarian; 1.72 µM in the test on 786-0 renal; 1.72 µM in the test with HCT-116 colon. Also, the TGI with TK-10 renal came out at 3.2 µM; with HOP-92 NSCLC it was 3.31 µM; in the test with OVCAR-3 ovarian it was 3.18 µM; with 786-0 renal, 3.15 µM; in the test on HCT-116 colon, 3.26 µM.
For `COc1ccc(C)cc1NC(=S)C#N`, the TGI in the test on TK-10 renal, in the test on HOP-92 NSCLC, with OVCAR-3 ovarian, with U251 CNS, with 786-0 renal and in the test on HCT-116 colon was more than 100 µM in each case. Besides, the TGI in the test on T-47D breast and with SK-OV-3 ovarian was more than 100 µM throughout.
Take `Cc1ccc2ccc(-c3ccccc3)c3c2c1C(=O)c1ccccc1C3=O`: the TGI in the test on TK-10 renal was more than 100 µM; in the test on SR leukemia, more than 100 µM; in the test with HOP-92 NSCLC, 74.4 µM; with OVCAR-3 ovarian it was more than 100 µM; in the test with U251 CNS, more than 100 µM; in the test with 786-0 renal, more than 100 µM. The TGI with HCT-116 colon and with SK-OV-3 ovarian was more than 100 µM each time.
